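These data come from cells grown in 96-well plates and exposed to compound for 48 hours at five concentrations. GI50 is the concentration that inhibits growth by half.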 Active and inactive are the calls of the source. No stated cut-off is given here; in the data, active = GI50 up to about 1.1 µM and inactive = higher.
What was measured:
Assay in all cases: growth of human tumour cells (NCI), 48 h
NCI-H460 = tested on: NCI-H460
SF-295 = tested on: SF-295
LOX IMVI = tested on: LOX IMVI
HOP-62 = tested on: HOP-62
RXF 393 = tested on: RXF 393
NCI-H522 = tested on: NCI-H522
SN12C = tested on: SN12C
SK-MEL-28 = tested on: SK-MEL-28
UACC-257 = tested on: UACC-257
SW-620 = tested on: SW-620
SNB-75 = tested on: SNB-75
SNB-19 = tested on: SNB-19
EKVX = tested on: EKVX
SK-MEL-2 = tested on: SK-MEL-2
SF-539 = tested on: SF-539
OVCAR-4 = tested on: OVCAR-4
IGROV-1 = tested on: IGROV-1
SK-OV-3 = tested on: SK-OV-3
CCRF-CEM = tested on: CCRF-CEM
HL-60 = tested on: HL-60

Measured: GI50

Nc1ccc(N(S(=O)(=O)c2ccccc2)S(=O)(=O)c2ccccc2)c(Cl)c1
inactive: NCI-H460 34.8 µM | SF-295 32.2 µM | LOX IMVI 68.1 µM | HOP-62 63.8 µM | RXF 393 > 100 µM | NCI-H522 33.9 µM | SN12C 75.9 µM | SK-MEL-28 68.9 µM | UACC-257 34.3 µM | SW-620 42.9 µM | SNB-75 42.2 µM | SNB-19 > 100 µM | EKVX 64.3 µM | SK-MEL-2 31.3 µM | SF-539 69 µM | OVCAR-4 75.3 µM | IGROV-1 62.1 µM

N#Cc1c(NC(=S)NC(=O)c2ccccc2)nc2c(c1-c1ccccc1)CCCC2
inactive: SK-OV-3 31.4 µM | CCRF-CEM > 100 µM | NCI-H460 > 100 µM | SF-295 34.9 µM | LOX IMVI > 100 µM | HOP-62 45.3 µM | RXF 393 17.8 µM | SN12C > 10 µM | SK-MEL-28 78.7 µM | UACC-257 > 100 µM | SW-620 > 100 µM | SNB-75 17.1 µM | SNB-19 > 100 µM | OVCAR-4 22.5 µM | IGROV-1 > 100 µM | HL-60 > 100 µM

O=C1CCCCC2N(C(c3ccccc3)c3ccccc3)CC[C@@]12c1ccccc1.O=C1CCCC[C@H]2N(C(c3ccccc3)c3ccccc3)CC[C@@]12c1ccccc1 (stereo partly drawn)
inactive: SK-OV-3 > 10 µM | CCRF-CEM 6.12 µM | NCI-H460 9.55 µM | SF-295 > 10 µM | LOX IMVI 6.3 µM | RXF 393 4.32 µM | NCI-H522 3.68 µM | SN12C > 10 µM | SK-MEL-28 > 10 µM | UACC-257 6.14 µM | SNB-75 > 10 µM | SNB-19 > 10 µM | EKVX 7.73 µM | SF-539 > 10 µM | OVCAR-4 4.21 µM | IGROV-1 > 10 µM | HL-60 2.87 µM

CSc1nc(NC2OC(COC(C)=O)C(OC(C)=O)C(OC(C)=O)C2OC(C)=O)c2c(OC(C)=O)c(C)c(=O)oc2n1 (stereo not drawn)
inactive: SK-OV-3 > 100 µM | CCRF-CEM > 100 µM | NCI-H460 > 100 µM | SF-295 > 100 µM | LOX IMVI > 100 µM | HOP-62 > 100 µM | RXF 393 > 100 µM | SN12C > 100 µM | UACC-257 > 100 µM | SW-620 > 100 µM | SNB-75 > 100 µM | SNB-19 > 100 µM | EKVX > 100 µM | SK-MEL-2 > 100 µM | SF-539 > 100 µM | OVCAR-4 > 100 µM | IGROV-1 > 100 µM | HL-60 > 100 µM

CCC1OC2C(CC=C(C)C)=C3OC(C)(O)C(C)(CC)C(OC(C)=O)C3=C3OC(=O)C=C1C32 (stereo not drawn)
inactive: SK-OV-3 33.6 µM | CCRF-CEM 36 µM | NCI-H460 30.9 µM | SF-295 17.8 µM | LOX IMVI 21.3 µM | HOP-62 23.6 µM | NCI-H522 16.6 µM | SN12C 20.4 µM | SK-MEL-28 24.7 µM | UACC-257 22.2 µM | SW-620 53.7 µM | SNB-75 23.6 µM | SNB-19 28.1 µM | EKVX 33.3 µM | SK-MEL-2 19.9 µM | SF-539 19.6 µM | OVCAR-4 32.4 µM | IGROV-1 26.4 µM | HL-60 75 µM

CC(C)(C)/N=c1/n(C(C)(C)C)oc(=O)n1C(C)(C)C
inactive: SK-OV-3 > 100 µM | CCRF-CEM > 100 µM | NCI-H460 > 100 µM | SF-295 > 100 µM | LOX IMVI > 100 µM | HOP-62 > 100 µM | RXF 393 > 100 µM | SN12C > 100 µM | SK-MEL-28 > 100 µM | UACC-257 > 100 µM | SW-620 > 100 µM | SNB-75 99.5 µM | SNB-19 > 100 µM | EKVX > 100 µM | SK-MEL-2 > 100 µM | SF-539 > 100 µM | OVCAR-4 > 100 µM | IGROV-1 > 100 µM | HL-60 > 100 µM

Cc1nn(C)c2c1C(=O)N(C)CC(=O)N2C
inactive: SK-OV-3 > 100 µM | CCRF-CEM > 100 µM | NCI-H460 > 100 µM | SF-295 > 100 µM | HOP-62 > 100 µM | RXF 393 > 100 µM | NCI-H522 > 100 µM | SN12C > 100 µM | SK-MEL-28 > 100 µM | UACC-257 > 100 µM | SW-620 > 100 µM | SNB-75 > 100 µM | SNB-19 > 100 µM | EKVX > 100 µM | SF-539 > 100 µM | OVCAR-4 > 100 µM | IGROV-1 > 100 µM | HL-60 > 100 µM

CN(C)c1ccc(C2CC(=O)CC(c3ccc(N(C)C)cc3)C23C(=O)NC(=O)NC3=O)cc1 (stereo not drawn)
inactive: CCRF-CEM > 25 µM | NCI-H460 > 25 µM | SF-295 19.8 µM | LOX IMVI > 25 µM | HOP-62 18.2 µM | RXF 393 15.8 µM | NCI-H522 17.6 µM | SN12C > 25 µM | SK-MEL-28 > 25 µM | UACC-257 > 25 µM | SW-620 > 25 µM | SNB-75 9.79 µM | SNB-19 9.14 µM | EKVX > 25 µM | SK-MEL-2 16.7 µM | SF-539 14.9 µM | OVCAR-4 > 25 µM | IGROV-1 > 25 µM | HL-60 > 25 µM

Cc1c(Cl)c(=O)oc2cc(OCC(=O)c3ccccc3)ccc12
inactive: SK-OV-3 > 100 µM | CCRF-CEM > 100 µM | NCI-H460 > 100 µM | SF-295 > 100 µM | HOP-62 31.3 µM | RXF 393 > 100 µM | NCI-H522 > 100 µM | SN12C > 100 µM | SK-MEL-28 > 100 µM | UACC-257 > 100 µM | SW-620 > 100 µM | SNB-19 > 100 µM | EKVX > 100 µM | SK-MEL-2 > 100 µM | SF-539 > 100 µM | OVCAR-4 > 100 µM | IGROV-1 > 100 µM | HL-60 > 100 µM

Nc1ccccc1Sc1ccc(Cl)cc1
inactive: SK-OV-3 40.4 µM | CCRF-CEM 17.9 µM | NCI-H460 24.3 µM | SF-295 27.9 µM | LOX IMVI 28.6 µM | HOP-62 31.4 µM | RXF 393 13.5 µM | SN12C 23.2 µM | SK-MEL-28 28.9 µM | UACC-257 23.2 µM | SW-620 37.1 µM | SNB-75 18.1 µM | EKVX 30.1 µM | SK-MEL-2 27.9 µM | SF-539 35.4 µM | OVCAR-4 30.8 µM | IGROV-1 52 µM | HL-60 18.7 µM

O=C1C=C(Sc2ccccc2)c2nccc3c2c1nc1ccccc13
inactive: SK-OV-3 80 µM | CCRF-CEM 3.13 µM | NCI-H460 23.6 µM | SF-295 29.4 µM | LOX IMVI 11.8 µM | HOP-62 14 µM | NCI-H522 2.33 µM | SN12C 17.8 µM | SK-MEL-28 19.3 µM | UACC-257 15.5 µM | SW-620 14.8 µM | SNB-75 33.3 µM | SNB-19 37.2 µM | EKVX 20.7 µM | SK-MEL-2 14.2 µM | SF-539 17.1 µM | OVCAR-4 16.1 µM | IGROV-1 11.2 µM | HL-60 2.08 µM
